Measurements taken from patent US20050277586A1, “Peptide chemically modified with polyethylene glycol” (priority 2002, published 2005).
pIC50: −log10 of the molar value.

Legend:
[1] = molecular target: phosphatidyl serine (binding of human Factor VIII); experiment: Affinity for phosphatidyl serine (EIA, inhibition of human Factor VIII binding); settings: for pIC50: in the presence of 5% BSA, human Factor VIII 1 μg/mL
Method: The specific affinity of the peptide for phosphatidyl serine was evaluated by measuring activity of the peptide for inhibiting the binding of the human Factor VIII to phosphatidyl serine by using human Factor VIII which is known to bind to phosphatidyl serine but not to phosphatidyl choline in the presence of serum albumin. To be more specific, 100 μL of ethanol solution containing 10 μg/mL of phospholipids at a phosphatidyl serine (manufactured by SIGMA): phosphatidyl choline (manufactured by SIGMA) ratio of 3:7 was added to the wells of a 96 well plate (Immulon I, manufactured by Dynatech), and exsiccated by using a centrifugal evaporator (EC-95C, manufactured by Sakuma Seisakusho) at 40° C. for 40 minutes. 200 μL each of TBS (10 mM Tris-HCl (pH 7.4) containing 1% bovine serum albumin (BSA Fraction V, hereinafter referred to as BSA, manufactured by Seikagaku Corporation) and 0.9% (W/V) NaCl solution were added to each well, and the wells were blocked by allowing the plate to stand at 37° C. for 2.5 hours. After washing the plate with water, 100 μL of TBS solution supplemented with 5% BSA mixed with human Factor VIII (manufactured by American Diagnostica) at a final concentration 1 μg/mL and the peptide of predetermined dose prepared in Example 1 was added to each well, and the reaction was allowed to take place at 4° C. for 24 hours.
After the completion of the reaction, the human Factor VIII that became bound to the phosphatidyl serine was measured by enzyme immunoassay (EIA) in accordance with the general procedure described in a book (“Enzyme Immunoassay (3rd ed.)”, Eiji Ishikawa et al., Igaku-Shoin, 1987). To be more specific, the measurement was conducted by using anti-human Factor VIII mouse monoclonal antibody (ESH8, manufactured by American Diagnostica) for the primary antibody, horseradish peroxidase-labeled anti-mouse IgG antibody (P0260, manufactured by Daco) for the secondary antibody, and tetramethylbenzidine for the chromogenic substrate, and measuring the absorption at a wavelength of 450 nm by using a reference wavelength of 630 nm on a spectrophotometer (NJ-2100, manufactured by Intermed).
Intensity of the affinity of the peptide for the phosphatidyl serine was evaluated by using the value obtained by subtracting the absorption of the well having no human Factor VIII added thereto from the absorption of the well having only the human Factor VIII added thereto as the control value (100%), and designating the peptide concentration at which the value 0.5 was obtained when the value obtained by subtracting the absorption of the well having only the peptide added thereto from the absorption of the well having a mixture of the human Factor VIII and the peptide added thereto were divided by the control value as the IC50 value, and evaluating the intensity to be ++ when the IC50 value was up to 1 μM, and + when the intensity was more than 1 μM but not more than 10 μM. It is to be noted that the specific affinity was evaluated to be none when the intensity was 10 μM or more.

[2] = Measurement of turbidity in BSA (absorbance at 600 nm); type: physicochemical; settings: 1% BSA, peptide 50 μM
Method: The solutions were evaluated for their absorbance at a wavelength of 600 nm by using a spectrophotometer (DU640, manufactured by Beckman).

[3] = test system: Vero cell, T24 cell, A549 cell; experiment: Nucleic acid-introducing ability, luciferase-expressing plasmid (procedure of Example 9); type: cell-based; settings: for Nucleic acid-introducing ability: luciferase plasmid 1 μg/mL, highest count of peptide 1.25, 2.5 or 5 μM, cell line not stated
Text: A cell line established from monkey kidney (Vero cell) and a human bladder cancer cell (T24 cell) purchased from American Type Culture Collection (ATCC) and human lung cancer cell (A549 cell) purchased from Dainippon Pharmaceutical were inoculated on a 24 well culture plate (manufactured by NALGEN NUNC) at 1×10^5 cells/well. Vero cell and A549 cell were cultivated in DMEM (manufactured by Life Technologies Oriental) supplemented with 10% fetal bovine serum (hereinafter referred to as FBS, manufactured by NICHIREI), and T24 cell was cultivated in McCoy's 5a (manufactured by Life Technologies Oriental) supplemented with 10% FBS in 5% CO2 atmosphere at 37° C. for 24 hours. After removing the medium, opti-MEM (manufactured by Life Technologies Oriental) prepared to have the concentration of the luciferase-expressing plasmid prepared in Example 7 of 1 μg/mL and the concentration of the peptide prepared in Example 1 of 1.25, 2.5, or 5 μM was added, and the cells were cultivated for 5 hours. Next, in the case of Vero cell and A549 cell, the culture medium was replaced with DMEM supplemented with 10% FBS, and in the case of T24 cell, the medium was replaced with McCoy's 5a supplemented with 10% FBS, and cultivation was continued in 5% CO2 atmosphere and at 37° C. for another 24 hours. The luciferase activity expressed in the cell was then measured by the method instructed in luciferase assay system (manufactured by Promega). To be more specific, the cells were washed with phosphate-buffered saline (hereinafter referred to as PBS, manufactured by SIGMA), and the cells were lyzed with Passive Lysis Buffer attached to the kit.
20 μL of this cell lysate and 100 μL of the Luciferase Assay Reagent II attached to the kit was added to a fluorescence-measuring plate (Microlite™ 1 plate, manufactured by Dynatech), and after mixing, fluorescence was measured for 1 second by using a multilabel counter (ARVO™ SY1420 MULTILABEL COUNTER, manufactured by Wallac Beltold.
Concentration of the protein in the cell lysate was measured by mixing 8 μL of the cell lysate and 200 μL of the protein assay solution (manufactured by Biorad) with 792 μL of ultrapure water in a disposable cuvette (UV fluorescent cuvette A204X, manufactured by Funakoshi), allowing the mixture to stand for 5 minutes at room temperature, and measuring the absorption at 595 nm with a spectrophotometer (DU640, manufactured by Beckman). Bovine serum albumin (BSA) was used for the standard protein. By using the thus obtained results, count per 1 second per 1 mg of protein of the cell lysate was calculated to thereby use the count as the luciferase activity, and the highest count in the three conditions of different peptide concentration was designated the gene-introducing ability of the peptide.

| Substance | pIC50 [1] | OD 600 [2] | Nucleic acid-introducing ability [3] | Affinity for phosphatidyl serine ([1]; procedure of Example 20) | Ability of introducing the nucleic acid into a cell ([3]; procedure of Example 9) | Fluorescent count per 1 mg of protein per 1 second ([3]; procedure of Example 9) |
| --- | --- | --- | --- | --- | --- | --- |
| TRSLRIHPRSWVHQIALRLRSLRIHPRSWVHQIALRS [SEQ ID NO: 10] | 5.00 to 6.00 | < 0.01 | 3+ (1,000,000 to less than 10,000,000) | – | – | – |
| SEQ ID NO: 21: SEQ ID NO: 1 with three locations in the 18 amino acid sequence substituted (TKYLKIHPKSWVHQIALRLKYLKIHPKSWVHQIALRS) | – | – | 2+ (100,000 to less than 1,000,000) | – | – | – |
| SEQ ID NO: 13: SEQ ID NO: 1 with one or two locations in the 18 amino acid sequence substituted (TRYLRIHPRSLVHQIALRLRYLRIHPRSLVHQIALRS) | – | – | 3+ (1,000,000 to less than 10,000,000) | – | – | – |
| SEQ ID NO: 9: SEQ ID NO: 1 with one or two locations in the 18 amino acid sequence substituted (TRYLRIHPRSWVHQIALRTRYLRIHPRSWVHQIALRS) | – | – | 3+ (1,000,000 to less than 10,000,000) | – | – | – |
| TRFLRIHPRSWVHQIALRLRFLRIHPRSWVHQIALRS [SEQ ID NO: 5] | > 6.00 | < 0.01 | 2+ (100,000 to less than 1,000,000) | – | – | – |
| TRYLRIHPRSWVRQIALRLRYLRIHPRSWVRQIALRS [SEQ ID NO: 2] | > 6.00 | < 0.01 | 3+ (1,000,000 to less than 10,000,000) | – | – | – |
| SEQ ID NO: 14: SEQ ID NO: 1 with one or two locations in the 18 amino acid sequence substituted (TRYLRIHPRSWSHQIALRLRYLRIHPRSWSHQIALRS) | – | – | 3+ (1,000,000 to less than 10,000,000) | – | – | – |
| TRYLRIHPRSWVHQIALKLKYLRIHPRSWVHQIALRS [SEQ ID NO: 7] | 5.00 to 6.00 | < 0.01 | 2+ (100,000 to less than 1,000,000) | – | – | – |
| Polylysine [reference compound] | – | ≥ 1 | – | no affinity for phosphatidyl serine | – | – |
| TRYLRIHPRSWVHNIALRLRYLRIHPRSWVHNIALRS [SEQ ID NO: 6] | > 6.00 | < 0.01 | 2+ (100,000 to less than 1,000,000) | – | – | – |
| SEQ ID NO: 24: deletion mutant of the peptide of SEQ ID NO: 4 (TLRYLRIHPRSWLHQIALRS) | – | – | 1+ (10,000 to less than 100,000) | – | had the ability of introducing the nucleic acid into a cell | – |
| SEQ ID NO: 26: SEQ ID NO: 1 with amino acid substitution so that it lacks the four sided 18 amino acid sequence (TRYLRIHPRSWVLQIALRLRYLRIHPRSWVLQIALRS) [reference compound] | – | – | – | – | no nucleic acid-introducing ability was found | less than 10,000 cps/mg protein |
| SEQ ID NO: 20: SEQ ID NO: 1 with three locations in the 18 amino acid sequence substituted (TRYLRLHPRSWVHQLALRTRYLRLHPRSWVHQLALRS) | – | – | 4+ (10,000,000 to less than 100,000,000) | – | – | – |
| SEQ ID NO: 22: SEQ ID NO: 1 with three locations in the 18 amino acid sequence substituted (TRRLRIHPRRWVHRIALRLRRLRIHPRRWVHRIALRS) | – | – | 3+ (1,000,000 to less than 10,000,000) | – | – | – |
| SEQ ID NO: 18: SEQ ID NO: 1 with one or two locations in the 18 amino acid sequence substituted (TRYLRIHPRSWLHQIALRTRYLRIHPRSWLHQIALRS) | – | – | 4+ (10,000,000 to less than 100,000,000) | – | – | – |
| SEQ ID NO: 12: SEQ ID NO: 1 with one or two locations in the 18 amino acid sequence substituted (TRYLRIHPRSWVHQIALSLRYLRIHPRSWVHQIALSS) | – | – | 2+ (100,000 to less than 1,000,000) | – | – | – |

Now from value to substance, other results behind:

| pIC50 [1] | OD 600 [2] | Substance | Nucleic acid-introducing ability [3] | Affinity for phosphatidyl serine ([1]; procedure of Example 20) | Ability of introducing the nucleic acid into a cell ([3]; procedure of Example 9) | Fluorescent count per 1 mg of protein per 1 second ([3]; procedure of Example 9) |
| --- | --- | --- | --- | --- | --- | --- |
| > 6.00 | < 0.01 | TRSLRIHPRLWVHQIALRLRSLRIHPRLWVHQIALRS [SEQ ID NO: 17] | 2+ (100,000 to less than 1,000,000) | – | – | – |
| > 6.00 | < 0.01 | TRYLRLHPRSWLHQLALRLRYLRLHPRSWLHQLALRS [SEQ ID NO: 19] | 4+ (10,000,000 to less than 100,000,000) | – | – | – |
| > 6.00 | < 0.01 | TRYLRIRPRSWVRQIALRLRYLRIRPRSWVRQIALRS [SEQ ID NO: 15] | 2+ (100,000 to less than 1,000,000) | – | – | – |
| > 6.00 | < 0.01 | TRYLRIHPRSWVHQIRLRLRYLRIHPRSWVHQIRLRS [SEQ ID NO: 3] | 2+ (100,000 to less than 1,000,000) | – | – | – |
| 5.00 to 6.00 | < 0.01 | TRYLRIHPRLWVHQIALRLRYLRIHPRLWVHQIALRS [SEQ ID NO: 11] | 3+ (1,000,000 to less than 10,000,000) | – | – | – |
| > 6.00 | < 0.01 | TIHPRSWVHQIALRLRYLRIHPRSWVHQIAS [SEQ ID NO: 23] | 2+ (100,000 to less than 1,000,000) | – | had the ability of introducing the nucleic acid into a cell | – |
| 5.00 to 6.00 | < 0.01 | TRYLRIHPKSWVHQIALRLRYLKIHPRSWVHQIALRS [SEQ ID NO: 8] | 3+ (1,000,000 to less than 10,000,000) | – | – | – |
